Measured values reported in PMC10779433, “Bidirectional Allosteric Coupling between PIP2 Binding and the Pore of the Oncochannel TRPV6” (International Journal of Molecular Sciences, 2024).
Where two headings read alike, the source gives them in different places. Residues, ends and D or L forms follow the SMILES beside them. *: point of attachment. Palmitoyl = CCCCCCCCCCCCCCCC(=O)*

How the values were obtained:
[1] = tested on: TRPV6 R470A; conditions: HEK293 cells, ref [47], cited from earlier work
Source text: (§1) Thereby, some mutants which were investigated in our previous publications are shown again to simplify comparison with other treatments.

[2] = tested on: TRPV6 K484A; conditions: HEK293 cells, ref [62], cited from earlier work
Source text: as §1

[3] = tested on: TRPV6 K484A; assay: NFAT screen, TRPV6 K484A; assay type: cell-based, human; conditions: HEK293 cells; 5 μM cis-22a, 2 h, vs DMSO
Procedure: (§2) N-terminally TagRFP-labeled human TRPV6 (725 aa) was kindly provided by R. Bhardwaj and M. Hediger (University of Bern, Bern, Switzerland). This variant is translated from the first ATG codon and thus deviates from the non-ATG-initiated protein which is expressed in vivo (accession number NM_018646.6) by lacking 40 amino acids of the very N-terminus. For N-terminal labeling with EYFP, TRPV6 was cloned into pEYFP-C1 (Clontech) via EcoRI and SacII restriction sites. […]
(§3) After incubation, cover slips were carefully rinsed with phenol red-free DMEM supplemented with the compound and dosage corresponding to the previous incubation, which was then also present during imaging. […] Subcellular NFAT localization of TRPV6 expressing cells was again monitored on an Axiovert 135 inverted microscope (Zeiss, Oberkochen, Germany), as described in more detail before. […] Images were analyzed using Matlab2018a, differentiating between three cell populations based on the ratio of CFP emission intensity originating from the nucleus and the cytosol, similar to Schober et al. (2019).

[4] = tested on: TRPV6 W583F; set-up: method as in PMID 33246965; conditions: ref [47], cited from earlier work
[5] = tested on: TRPV6 R492Q; assay: NFAT screen, TRPV6 R492Q; assay type: cell-based, human; conditions: HEK293 cells; 5 μM cis-22a, 2 h, vs DMSO
Procedure: as §2, §3

[6] = tested on: TRPV6 W593A; assay: NFAT screen, TRPV6 W593A; assay type: cell-based, human; conditions: HEK293 cells; 5 μM cis-22a, 2 h
Procedure: as §2, §3

[7] = tested on: TRPV6 R470A; assay: Whole-cell patch clamp, TRPV6 R470A; assay type: cell-based, human; conditions: HEK293 cells; 10 μM pal-PIP2 peptide; p < 0.05; Figure 4D
Source text: N-terminally TagRFP-labeled human TRPV6 (725 aa) was kindly provided by R. Bhardwaj and M. Hediger (University of Bern, Bern, Switzerland). This variant is translated from the first ATG codon and thus deviates from the non-ATG-initiated protein which is expressed in vivo (accession number NM_018646.6) by lacking 40 amino acids of the very N-terminus. For N-terminal labeling with EYFP, TRPV6 was cloned into pEYFP-C1 (Clontech) via EcoRI and SacII restriction sites. Mutations (F468A, R470A, F472A, K484A/Q, G488R, R492A/Q, I575A, G579A, D580A/K, H582A, W583A/F, H587A, R589A, W593A, R632A/Q, R470A, W583F) were introduced using the QuickChange XL site-directed mutagenesis kit (Stratagene, San Diego, CA, USA) and Pfu DNA Polymerase (Promega, Madison, WI, USA). pTagRFP-hTRPV6 I575A was kindly provided by the lab of M. Hediger (University of Bern, Bern, Switzerland). Forward and reverse primers for site-directed mutagenesis were synthesized by Eurofins genomics GmbH (Wien, Vienna, Austria). Intactness of the constructs in terms of sequence was confirmed by sequencing (Microsynth Austria GmbH, Wien, Vienna, Austria; Eurofins genomics GmbH, Wien, Vienna, Austria). […]
Electrophysiological experiments were performed at 20 °C to 24 °C in whole-cell recording configurations of the patch clamp technique. […] The liquid junction potential was determined as 12 mV; the voltages were not adjusted. […]

[8] = tested on: TRPV6 G488R; assay: Fura-2 Ca2+ imaging, TRPV6 G488R; assay type: cell-based, human; conditions: HEK293 cells; 20 μM pal-PIP2 peptide; 2 mM Ca2+; Figure 2A

| SMILES | current inhibition vs TRPV6 WT ([1]; 0.1 μM cis-22a) | current inhibition vs TRPV6 WT ([1]; 10 μM cis-22a, after 0.1 μM) | current inhibition vs TRPV6 WT ([2]; 0.1 μM cis-22a) | current inhibition vs TRPV6 WT ([2]; 10 μM cis-22a, after 0.1 μM) | reduction of nuclear NFAT localization [3] | response to cis-22a vs TRPV6 WT ([4]; HEK293 cells, 0.1 μM and 10 μM cis-22a, Figure 5B) | IC50 ([4]; TRPV6 W583F) | reduction of nuclear NFAT localization [5] | reduction in nuclear NFAT [6] | sensitivity to peptide-based PIP2 sequestration vs WT [7] | reduction of intracellular Ca2+ level [8] |
| --- | --- | --- | --- | --- | --- | --- | --- | --- | --- | --- | --- |
| Cc1cccc(C2CCC(N3CCN(c4cccnc4)CC3)CC2)c1.O=C(O)C(F)(F)F (stereo not drawn) [cis-22a] | significantly reduced | significantly reduced inhibition | significantly reduced | significantly reduced inhibition | failed to significantly reduce NFAT nuclear localization | significantly reduced response | ~6.19 µM | failed to significantly reduce NFAT nuclear localization | lower yet significant decrease in the proportion of cells showing NFAT in the nucleus |  |  |
| CCCCCCCCCCCCCCCC(=O)N[C@@H](Cc1c[nH]cn1)C(=O)N[C@@H](CCCNC(=N)N)C(=O)N[C@@H](CCC(N)=O)C(=O)N[C@@H](CCCCN)C(=O)N[C@@H](Cc1c[nH]cn1)C(=O)N[C@@H](Cc1ccccc1)C(=O)N[C@@H](CCC(=O)O)C(=O)N[C@@H](CCCCN)C(=O)N[C@@H](CCCNC(=N)N)C(=O)N[C@@H](CCCNC(=N)N)C(N)=O [pal-PIP2 peptide] (Palmitoyl-HRQKHFEKRR-NH2) |  |  |  |  |  |  |  |  |  | significantly reduced sensitivity | ~ 2% |
